Laboratory results from patent US5364879A, “Medical uses of trioxolane and diperoxide compounds” (Cliveden Ltd., priority 1994, dated 1994).
≈ marks a conversion by molar mass, not a printed value. Read-outs that look alike come from different tables or passages of the source.

Columns and labels:
Leishmania major = assay: Treatment of mice infected with Leishmania major; assay type: in vivo, Leishmania major (balb/c mice)
S. aureus [1] = assay: microbe, parasite or virus in culture; assay type: cell-based; settings: Staphylococcus aureus, read-out: lowest concentration inhibiting at least one isolate
S. epidermidis = assay: MIC by agar diffusion method; assay type: cell-based; settings: Staphylococcus epidermidis
N. gonorrhoea = assay: MIC by agar diffusion method; assay type: cell-based, Neisseria gonorrhoea; settings: Neisseria
Klebisella = assay: microbe, parasite or virus in culture; assay type: cell-based, Klebsiella spp.; settings: Klebsiella
E. coli = assay: microbe, parasite or virus in culture; assay type: cell-based; settings: Escherichia coli
Archromobacter = assay: MIC by agar diffusion method; assay type: cell-based; settings: Achromobacter, N = 1
C. albicans = assay: MIC by agar diffusion method; assay type: cell-based; settings: Candida albicans, N = 5
Tri. violaceum = assay: microbe, parasite or virus in culture; assay type: cell-based, Trichophyton violaceurn; settings: Trichophyton violaceum
Tri. canis = assay: microbe, parasite or virus in culture; assay type: cell-based, Trichophyton canis; settings: Trichophyton
Cryptococcus = assay: MIC by agar diffusion method; assay type: cell-based, Cryptoccus spp.; settings: N = 1
Ph. verrucose = assay: microbe, parasite or virus in culture; assay type: cell-based, Phialophora verrucose; settings: Phialophora
Penicillium = assay: MIC by agar diffusion method; assay type: cell-based, Penicillium spp.; settings: N = 1
EPEC/ETEC [2] = assay: MIC in agar dilution; assay type: cell-based, Enteropathogenic/enterotoxigenic Escherichia coli; settings: Escherichia coli, N = 5
Candida [3] = assay: MIC in agar dilution; assay type: cell-based, Candida spp.; settings: N = 2
EPEC/ETEC [4] = assay: MIC in broth; assay type: cell-based, Enteropathogenic/enterotoxigenic Escherichia coli; settings: Escherichia coli, N = 5
Candida [5] = assay: MIC in broth; assay type: cell-based, Candida spp.; settings: N = 2
S. aureus [6] = assay: microbe, parasite or virus in culture; assay type: cell-based; settings: Staphylococcus aureus
Salmonella = assay: microbe, parasite or virus in culture; assay type: cell-based, Salmonella spp.
Shigella = assay: microbe, parasite or virus in culture; assay type: cell-based, Shigella spp.
Pseudomonas = assay: microbe, parasite or virus in culture; assay type: cell-based, Pseudomonas spp.
Candida [7] = assay: microbe, parasite or virus in culture; assay type: cell-based, Candida spp.
[8] = test system: Myeloma cell line (x63 balb/c line); assay: Effect on myeloma cell line; assay type: cell-based
human spermatozoa = assay: Effect on spermatozoa; assay type: cell-based
[9] = test system: microorganisms which cause common infections; assay type: cell-based
lymphocytes = assay: Immunomodulatory activity, bone marrow examination; assay type: in vivo; settings: Balb/c mice
Leishmania donova = test system: Leishmania donova; parameters: species or system Leishmania donova (Balb/c mice); settings: mouse, in vivo
[10] = mouse, in vivo, ip
[11] = parameters: species or system New Zealand White rabbits; settings: rabbit, in vivo
[12] = parameters: species or system New Zealand White rabbits; settings: rabbit, in vivo; remark: listed apart in the source
in vivo = settings: mouse

O.O.O.O.O.O.O.O.O.O=C([O-])[C@@H]1[O][Sb](=[O])([O][Sb]2(=[O])[O][C@H]([C@H](O)CO)[C@H](O)[C@H](C(=O)[O-])[O]2)[O][C@H]([C@H](O)CO)[C@@H]1O.[Na+].[Na+].[Na+] (some centres unmarked) [Pentostam, reference compound]
lesions, Day 14 (Leishmania major; mouse, in vivo, ip): Large lesions
number dead, Day 14 (Leishmania major; mouse, in vivo, ip): 1
palate involvement, Day 14 (Leishmania major; mouse, in vivo, ip): involvement

CCC1OOC(CCO)O1 (stereo not drawn) [trioxolane derivative of cis 3-hexene-1-ol]
MIC (S. aureus [1]): 31 µg/mL (≈ 209 µM)
MIC (S. epidermidis; read-out: lowest concentration inhibiting at least one isolate): 31 µg/mL (≈ 209 µM)
MIC (S. epidermidis; agar diffusion, N = 14, read-out: MIC): 25 µg/mL (≈ 169 µM)
MIC (N. gonorrhoea; N = 49, number in parentheses, read-out: lowest concentration inhibiting at least one isolate): 1.9 µg/mL (≈ 12.8 µM)
MIC (N. gonorrhoea; N = 49, read-out: MIC): 3.5 µg/mL (≈ 23.6 µM)
MIC (Klebisella): 7 µg/mL (≈ 47.2 µM)
MIC (E. coli): 120 µg/mL (≈ 810 µM)
MIC (Archromobacter): 60 µg/mL (≈ 405 µM)
MIC (C. albicans): 31 µg/mL (≈ 209 µM)
MIC (Tri. violaceum): 150 µg/mL (≈ 1010 µM)
MIC (Tri. canis): 150 µg/mL (≈ 1010 µM)
MIC (Cryptococcus): 15 µg/mL (≈ 101 µM)
MIC (Ph. verrucose): 150 µg/mL (≈ 1010 µM)
MIC (Penicillium): 310 µg/mL (≈ 2090 µM)
MIC (EPEC/ETEC [2]): 31 µg/mL (≈ 209 µM)
MIC (Candida [3]): 31 µg/mL (≈ 209 µM)
MIC (EPEC/ETEC [4]): 620 µg/mL (≈ 4180 µM)
MIC (Candida [5]): 310 µg/mL (≈ 2090 µM)
MBC (S. aureus [6]): 1250 µg/mL (≈ 8440 µM)
MBC (Salmonella): 2500 µg/mL (≈ 16900 µM)
MBC (Shigella): 1250 µg/mL (≈ 8440 µM)
MBC (Pseudomonas): 1250 µg/mL (≈ 8440 µM)
MBC (Candida [7]): 1250 µg/mL (≈ 8440 µM)
time within which myeloma cell line was killed [8]: ≤ 48 h
time within which human spermatozoa were killed (human spermatozoa): ≤ 1 min
activity compared with Geraniol trioxolane [9]: more active than Geraniol trioxolane
activity compared with conventional drugs [9]: more active than conventional drugs
direct bioactivity, agar vs broth [9]: better in agar than in broth methods
effect of water on direct bioactivity [9]: significantly reduces
relationship with resistance and sensitivity to conventional antibiotics [9]: no relationship
sensitivity of all the microorganisms tested [9]: uniformly sensitive
new clones of lymphocytes in bone marrow vs mice without any drug (lymphocytes): increase in new clones of lymphocytes
lesions, Day 0 (Leishmania major; IP, n = 15/group): Large lesions
lesions, Day 14 (Leishmania major; IP, n = 15/group): Lesions scabbed
number dead, Day 14 (Leishmania major; IP, n = 15/group): 2
number with palate involvement, Day 14 (Leishmania major; IP, n = 15/group): 2
general condition, Day 14 (Leishmania major; topical, n = 15/group): Animals healthy and
lesions, Day 0 (Leishmania major; topical, n = 15/group): Large lesions
clearing parasites from the viscera compared with Pentostam (Leishmania donova): perform better than Pentostam
minimum lethal dose [10]: 3000 mg/kg
tolerability in studies on LD50 [10]: highly tolerated

CC1(C)OOC(CCC(C)(O)C2OCOO2)O1 (centres unmarked) [linalool trioxolane]
Primary Irritation Index (PII) [11]: 1.0
ocular irritation [12]: non-irritant
LD50 (in vivo): ~3000 mg/kg
